According to ChEMBL document CHEMBL5214954, “Identification of PI3K/HDAC Dual-targeted inhibitors with subtype selectivity as potential therapeutic agents against solid Tumors: Building HDAC6 potency in a Quinazolinone-based PI3Kδ-selective template” (Bioorg Med Chem, 2022):

Experiments:
Histone deacetylase 1 = Histone deacetylase 1 (Homo sapiens, UniProt Q13547)
Description: Inhibition of HDAC1 (unknown origin) measured by fluorescence based assay

[1] = molecular target: T1, Protein deacetylase HDAC6 (Homo sapiens, UniProt Q9UBN7)
T1 sequence (Q9UBN7 whole entry): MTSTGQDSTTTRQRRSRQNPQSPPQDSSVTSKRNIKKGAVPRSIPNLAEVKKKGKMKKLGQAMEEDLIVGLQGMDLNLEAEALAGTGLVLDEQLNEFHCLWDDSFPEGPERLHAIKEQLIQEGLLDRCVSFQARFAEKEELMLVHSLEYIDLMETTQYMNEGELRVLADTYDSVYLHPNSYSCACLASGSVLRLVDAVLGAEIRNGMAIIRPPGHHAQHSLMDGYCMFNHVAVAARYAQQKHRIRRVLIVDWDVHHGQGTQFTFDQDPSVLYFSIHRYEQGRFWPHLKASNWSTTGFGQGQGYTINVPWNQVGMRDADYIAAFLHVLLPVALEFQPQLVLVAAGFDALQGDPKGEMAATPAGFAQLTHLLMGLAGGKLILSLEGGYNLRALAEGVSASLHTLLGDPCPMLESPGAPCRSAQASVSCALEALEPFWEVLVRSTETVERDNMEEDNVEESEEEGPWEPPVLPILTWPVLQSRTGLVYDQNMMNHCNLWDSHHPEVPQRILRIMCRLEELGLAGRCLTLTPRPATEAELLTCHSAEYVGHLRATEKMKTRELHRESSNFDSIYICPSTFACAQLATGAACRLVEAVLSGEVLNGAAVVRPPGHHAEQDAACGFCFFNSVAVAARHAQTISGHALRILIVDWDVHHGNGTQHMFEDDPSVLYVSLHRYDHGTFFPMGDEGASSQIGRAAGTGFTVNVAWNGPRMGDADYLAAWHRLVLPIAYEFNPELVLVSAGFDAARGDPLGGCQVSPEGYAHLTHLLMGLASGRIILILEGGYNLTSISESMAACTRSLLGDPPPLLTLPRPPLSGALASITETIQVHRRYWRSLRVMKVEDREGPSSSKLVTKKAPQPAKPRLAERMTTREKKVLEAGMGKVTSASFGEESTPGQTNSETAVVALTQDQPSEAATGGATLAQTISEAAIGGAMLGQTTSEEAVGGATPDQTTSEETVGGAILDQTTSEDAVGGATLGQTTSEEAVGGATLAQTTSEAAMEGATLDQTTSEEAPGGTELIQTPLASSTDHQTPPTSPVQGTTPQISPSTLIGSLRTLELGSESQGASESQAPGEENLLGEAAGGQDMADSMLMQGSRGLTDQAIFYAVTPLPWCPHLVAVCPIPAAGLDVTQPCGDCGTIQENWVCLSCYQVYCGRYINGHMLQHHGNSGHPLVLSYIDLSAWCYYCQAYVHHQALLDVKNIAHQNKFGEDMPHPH
Description: Inhibition of HDAC6 (unknown origin) measured by fluorescence based assay

[2] = molecular target: T2, Phosphatidylinositol 4,5-bisphosphate 3-kinase catalytic subunit delta isoform (Homo sapiens, UniProt O00329); test: Inhibition of PI3Kdelta (unknown origin) measured by ADP-Glo assay
T2 sequence (O00329 whole entry): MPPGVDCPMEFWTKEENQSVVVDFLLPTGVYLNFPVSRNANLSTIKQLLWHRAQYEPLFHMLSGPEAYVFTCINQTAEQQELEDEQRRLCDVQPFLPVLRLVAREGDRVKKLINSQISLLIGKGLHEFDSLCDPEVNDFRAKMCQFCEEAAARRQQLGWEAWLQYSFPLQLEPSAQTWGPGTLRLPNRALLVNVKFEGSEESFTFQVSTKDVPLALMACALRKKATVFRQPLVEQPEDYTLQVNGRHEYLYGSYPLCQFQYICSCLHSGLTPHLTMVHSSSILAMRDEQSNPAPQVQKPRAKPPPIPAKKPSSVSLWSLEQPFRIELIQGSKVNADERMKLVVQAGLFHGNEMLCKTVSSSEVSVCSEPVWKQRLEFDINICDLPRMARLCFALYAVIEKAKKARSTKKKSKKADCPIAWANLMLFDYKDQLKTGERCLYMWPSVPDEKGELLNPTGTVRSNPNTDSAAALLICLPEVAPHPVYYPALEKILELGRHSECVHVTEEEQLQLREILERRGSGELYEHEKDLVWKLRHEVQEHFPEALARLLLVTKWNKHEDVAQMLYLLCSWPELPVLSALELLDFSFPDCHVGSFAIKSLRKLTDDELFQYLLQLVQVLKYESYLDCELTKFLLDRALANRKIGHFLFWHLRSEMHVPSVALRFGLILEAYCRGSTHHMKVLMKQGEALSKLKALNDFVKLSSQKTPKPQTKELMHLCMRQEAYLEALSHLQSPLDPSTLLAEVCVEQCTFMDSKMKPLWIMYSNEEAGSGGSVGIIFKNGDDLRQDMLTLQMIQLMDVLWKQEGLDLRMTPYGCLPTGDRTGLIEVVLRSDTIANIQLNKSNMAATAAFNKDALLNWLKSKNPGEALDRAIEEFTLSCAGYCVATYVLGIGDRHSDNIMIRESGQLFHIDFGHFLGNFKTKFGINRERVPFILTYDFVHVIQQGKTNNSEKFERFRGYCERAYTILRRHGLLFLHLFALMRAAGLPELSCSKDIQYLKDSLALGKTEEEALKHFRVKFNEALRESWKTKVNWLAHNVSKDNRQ

T47D = test: Antiproliferative activity against human T47D cells incubated for 72 hrs by CCK-8 assay; format: functional, cell-based
HCT-116 = test: Antiproliferative activity against human HCT-116 cells incubated for 72 hrs by CCK-8 assay; format: functional, cell-based; details: HCT-116, 72 h
[3] = Cytotoxicity against HUVEC cells incubated for 72 hrs by CCK-8 assay; details: human
SU-DHL-6 = test: Antiproliferative activity against human SU-DHL-6 cells incubated for 72 hrs by CCK-8 assay; format: functional, cell-based; details: SU-DHL-6, 72 h
KM12 = test: Antiproliferative activity against human KM12 cells incubated for 72 hrs by CCK-8 assay; format: functional, cell-based; details: KM12, 72 h

Chain of Histone deacetylase 1 (Q13547 whole entry): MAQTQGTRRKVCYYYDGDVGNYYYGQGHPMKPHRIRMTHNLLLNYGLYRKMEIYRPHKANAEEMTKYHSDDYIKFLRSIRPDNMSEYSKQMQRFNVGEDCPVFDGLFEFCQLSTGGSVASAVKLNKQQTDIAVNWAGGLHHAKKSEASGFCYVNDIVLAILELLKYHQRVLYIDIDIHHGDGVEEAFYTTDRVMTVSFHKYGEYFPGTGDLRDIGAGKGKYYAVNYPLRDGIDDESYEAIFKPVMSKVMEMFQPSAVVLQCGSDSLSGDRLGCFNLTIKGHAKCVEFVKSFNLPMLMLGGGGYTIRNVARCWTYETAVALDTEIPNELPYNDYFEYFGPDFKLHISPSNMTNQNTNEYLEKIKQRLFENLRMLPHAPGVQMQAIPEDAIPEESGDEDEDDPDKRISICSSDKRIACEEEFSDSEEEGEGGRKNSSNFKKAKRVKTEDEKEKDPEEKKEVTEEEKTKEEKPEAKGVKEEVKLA

| Compound | IC50 (Histone deacetylase 1) [nM] | IC50 [1] [nM] | IC50 [2] [nM] | also measured |
| --- | --- | --- | --- | --- |
| CC[C@H](Nc1ncnc2[nH]cnc12)c1nc2cccc(F)c2c(=O)n1CCCCCC(=O)NO | 85 | 121 | 36 | – |
| Cn1c([C@@H]2C[C@@H](OCc3ccc(C(=O)NO)s3)CN2c2nc(N)nc(N)c2C#N)nc2cccc(Cl)c2c1=O | 88 | 13 | 42 | – |
| CC[C@H](Nc1ncnc2[nH]cnc12)c1nc2cccc(F)c2c(=O)n1-c1ccccc1 [IDELALISIB] | – | – | – | IC50 (T47D): 510 nM; IC50 (HCT-116): 2960 nM; IC50 at 72 h [3]: 38200 nM; IC50 (SU-DHL-6): 53 nM; IC50 (KM12): 960 nM |
| N#Cc1c(N)nc(N)nc1N1C[C@@H](OC(=O)NCc2ccc(C(=O)NO)cc2)C[C@H]1c1nc2cccc(Cl)c2c(=O)n1-c1ccccc1 | – | 168 | 6.8 | – |
| N#Cc1c(N)nc(N)nc1N1C[C@H](OC(=O)NCc2ccc(C(=O)NO)cc2)C[C@H]1c1nc2cccc(F)c2c(=O)n1-c1ccccc1 | – | – | 24 | – |
| CC[C@H](Nc1ncnc2[nH]cnc12)c1nc2cccc(F)c2c(=O)n1Cc1ccc(C(=O)NO)cc1 | 244 | 45 | 99 | – |
| N#Cc1c(N)nc(N)nc1N1CC2(CC2)C[C@H]1c1nc2cccc(F)c2c(=O)n1Cc1ccc(C(=O)NO)cc1 | 287 | 27 | 33 | – |
| N#Cc1c(N)nc(N)nc1N1CC2(CC2)C[C@H]1c1nc(NCc2ccc(C(=O)NO)cc2)c2c(Cl)cccc2n1 | – | 398 | – | – |
| N#Cc1c(N)nc(N)nc1N1C[C@H](OC(=O)NCc2ccc(C(=O)NO)cc2)C[C@H]1c1nc2cccc(Cl)c2c(=O)n1-c1ccccc1 | 271 | 87 | 1.6 | – |
| Cn1c([C@@H]2C[C@@H](OC(=O)NCc3ccc(C(=O)NO)cc3)CN2c2nc(N)nc(N)c2C#N)nc2cccc(Cl)c2c1=O | 102 | 27 | 18 | – |
| CC[C@H](Nc1nc(N)nc(N)c1C#N)c1nc2cccc(Cl)c2c(=O)n1Cc1ccc(C(=O)NO)s1 | 198 | 45 | – | – |
| N#Cc1c(N)nc(N)nc1N1CC2(CC2)C[C@H]1c1nc2cccc(Cl)c2c(=O)n1Cc1ccc(C(=O)NO)cc1 | – | 331 | 6.1 | – |
| Cn1c([C@@H]2C[C@@H](OCc3ccc(C(=O)NO)cc3)CN2c2nc(N)nc(N)c2C#N)nc2cccc(Cl)c2c1=O | 72 | 13 | 75 | – |
| O=C(NO)c1ccc(Cn2c([C@@H]3CC4(CC4)CN3c3ncnc4[nH]cnc34)nc3cccc(F)c3c2=O)cc1 | 360 | 28 | 136 | – |
| O=C(CCCCCCNC(=O)c1cnc(N(c2ccccc2)c2ccccc2)nc1)NO [RICOLINOSTAT] | – | – | – | IC50 (T47D): 710 nM; IC50 (HCT-116): 1850 nM; IC50 at 72 h [3]: 13600 nM; IC50 (SU-DHL-6): 830 nM; IC50 (KM12): 2150 nM |
| N#Cc1c(N)nc(N)nc1N1CC2(CC2)C[C@H]1c1nc2cccc(Cl)c2c(=O)n1Cc1cc(C(=O)NO)no1 | – | 604 | 6.9 | – |
| N#Cc1c(N)nc(N)nc1N1CC2(CC2)C[C@H]1c1nc(NCCc2ccc(C(=O)NO)cc2)c2c(Cl)cccc2n1 | – | 219 | – | – |
| N#Cc1c(N)nc(N)nc1N1CCC[C@H]1c1nc2cccc(Cl)c2c(=O)n1Cc1ccc(C(=O)NO)s1 | 111 | 67 | – | – |
| N#Cc1c(N)nc(N)nc1N1CCC[C@H]1c1nc(NCc2ccc(C(=O)NO)cc2)c2c(Cl)cccc2n1 | – | 267 | – | – |
| Cn1c([C@@H]2C[C@@H](OC(=O)NCCc3ccc(C(=O)NO)cc3)CN2c2nc(N)nc(N)c2C#N)nc2cccc(Cl)c2c1=O | 288 | 36 | 22 | – |
| CN(Cc1ccc(C(=O)NO)cc1)C(=O)O[C@@H]1C[C@@H](c2nc3cccc(Cl)c3c(=O)n2C)N(c2nc(N)nc(N)c2C#N)C1 | 260 | 11 | 42 | – |
| Cn1c([C@@H]2C[C@@H](OC(=O)NCc3ccc(C(=O)NO)s3)CN2c2nc(N)nc(N)c2C#N)nc2cccc(Cl)c2c1=O | 182 | 43 | 16 | – |
| N#Cc1c(N)nc(N)nc1N1CC2(CC2)C[C@H]1c1nc2cccc(F)c2c(=O)n1Cc1ccc(C(=O)NO)s1 | 82 | 32 | 20 | – |
| N#Cc1c(N)nc(N)nc1N1CCC[C@H]1c1nc2cccc(Cl)c2c(=O)n1Cc1ccc(C(=O)NO)cc1 | – | 280 | – | – |
| C[C@H](Nc1nc(N)nc(N)c1C#N)c1nc2cccc(Cl)c2c(=O)n1Cc1ccc(C(=O)NO)s1 | 214 | 66 | – | – |
